Laboratory results taken from US11286278B2, “DPEP-1 binding agents and methods of use” (Arch Biopartners, Inc., priority 2018, dated 2022).
“Also recorded” adds a separate entry of the source. Ends that are not written are not given here.

Legend:
[1] = target: T1, renal rat membrane dipeptidase (DPEP-1) (Rattus norvegicus, UniProt P31430); experiment: Binding of Alexa-488 conjugated peptides to Cos-7 cells transfected with renal rat membrane dipeptidase; settings: Alexa-488 conjugate, on ice 30 minutes
T1 construct: expressed in transfected cells; host or cells: Cos-7
Description: Cells were incubated with LSALT or GFE-1 conjugated with Alexa-488 (Green), or control peptide conjugated with Alexa-488 (Green) on ice for 30 minutes. Cells were washed and fixed using 4% paraformaldehyde and immunofluorescence microscopy was performed to assess binding. Shown are representative photomicrographs of each experimental condition (n=2).
48 hours after transfection, cells were incubated with LSALT conjugated to Alexa-488 (green) on ice for 30 minutes. Cells were washed and flow cytometry was performed to assess binding. Shown are single parameter histographs for each experimental condition (n=2).

[2] = tested on: neutrophil adhesion in the hepatic sinusoids; experiment: Neutrophil adhesion in hepatic sinusoids after LPS, intravital microscopy; format: in vivo, mouse; settings: LysM gfp mice, LPS 0.5 mg/kg i.p., peptide 1 mM i.v.
Description: Six to ten week old LysM^(gfp) mice were injected with 1 mM dose of LSALT or 1KGAL (control) (intravenous) 5 minutes after the injection of 0.5 mg/kg of lipopolysaccharide (intraperitoneal). After 3 hours, animals were injected with ketamine and xylazine to provide general anesthesia. Fluorescently conjugated F4/80 and PECAM-1 antibodies were then administered via jugular vein cannulation and intravital spinning disk confocal microscopy was performed. The livers were imaged for an hour and the number of neutrophils were counted at different time points. Neutrophils which were stationary for ≥30 seconds in the liver sinusoids were counted as adherent cells. Data are representative of three independent experiments. An unpaired 2-tailed student's t-test was performed comparing LSALT, […] control treated group against the LPS treated group (*p<0.05).

[3] = tested on: activated (TNFα and IL1β treated) HLMVEC; experiment: Cancer cell binding to activated human lung microvascular endothelial cells; format: cell-based; settings: 50 μM
From the text: LSALT decreases binding of metastatic cancer cells to human lung microvascular endothelial cells (HLMVEC) activated by TNFα and IL1β.

DPEP1 [4] = target: T2, DPEP1 (Homo sapiens, UniProt P16444); experiment: Immunofluorescence binding of Alexa-488 conjugated peptides to Cos-1 cells transfected with human DPEP-1; set-up: expressed in transfected cells; host or cells: Cos-1; settings: Alexa-488 conjugate, on ice 30 minutes
T2 sequence (P16444 17-385): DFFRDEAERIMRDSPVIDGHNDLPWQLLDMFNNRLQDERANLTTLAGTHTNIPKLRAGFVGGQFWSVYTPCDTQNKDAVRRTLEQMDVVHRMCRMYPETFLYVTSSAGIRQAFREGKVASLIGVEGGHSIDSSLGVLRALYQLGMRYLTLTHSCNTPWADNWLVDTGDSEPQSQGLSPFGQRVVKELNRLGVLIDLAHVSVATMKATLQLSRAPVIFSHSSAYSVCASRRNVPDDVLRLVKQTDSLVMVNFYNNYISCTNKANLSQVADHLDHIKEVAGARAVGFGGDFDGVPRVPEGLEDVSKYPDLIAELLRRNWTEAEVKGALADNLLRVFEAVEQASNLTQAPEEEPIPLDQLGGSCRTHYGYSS
Description: 24 hours after transfection, DPEP-1 expressing cells weer reseeded on 24 well collagen coated (neutralized) plates and allowed to grow for 24 hours at 37° C. […] Cells were blocked with FBS/NBSA/Tween in PBS for 30 minutes on ice. Cells were then washed with PBS and incubated with Alexa-488 (green) conjugated LSALT, GFE-1, control peptide or DPEP-1 antibody ( 1/100) (Sigma) on ice for 30 minutes. After incubation, cells were washed with PBS and stained with DAPI for 4 minutes on ice. Cells were again washed with PBS, fixed using 4% paraformaldehyde and immunofluoresence microscopy was performed to assess binding. Proteins from human DPEP-1 transfected cells were isolated after 48 hours using octyl-glucoside/RIPA in the absence of protease inhibitors. […] Values shown are the mean ±s.e.m. from six independent experiments; asterisks (***) indicate P<0.001 as compared with DPEP-1 transfected cells (one-way ANOVA with the Neuman-Keuls post-test)[…]. Proteins from transfected cells were isolated after 48 hours using octyl-glucoside/RIPA lysis buffer and western blot analysis was performed to assess DPEP-1 expression using DPEP-1 antibody (Sigma). […]

DPEP1 [5] = target: T2, DPEP1; experiment: Biotin transfer, neutravidin precipitation and DPEP1 western blot; format: binding; set-up: expressed in transfected cells; host or cells: Cos-1; settings: 10 mg/ml biotin transfer peptide, UV activation
Description: Cos-1 cells were transiently transfected with either 3 or 5 μg of membrane dipeptidase (DPEP-1) cDNA corresponding to the rat (Shown in FIG. 5A), human (Shown in FIG. 5B), or canine (Shown in FIG. 5E) DPEP-1 gene using Lipofectamine 2000 (Invitrogen) reagent in OptiMEM medium. 24 hours after transfection, DPEP-1 expresisng cells were re-seeded on collagen coated (neutralized) wells in 24 well plates and allowed to grow for 24 hours at 37° C. […] Cells were blocked with FBS/NBSA/Tween in PBS for 30 minutes on ice. Cells were then washed with PBS and incubated with Alexa-488 (green) conjugated LSALT, GFE-1, control peptide or DPEP-1 antibody ( 1/100) (Sigma) on ice for 30 minutes. […] After incubation, cells were washed with PBS and treated with 10 mg/ml biotin transfer peptide (LSALT, GFE-1 or Control Peptide (KGAL)] for 10 minutes. Cells were then washed with PBS and biotin transfer was enabled by UV activation of the aryl azide groups for 15 minutes at 363 nm. Residual fluid was removed and monolayers were lysed either with octyl-glucoside/RIPA or 8M urea. Isolated supernatants were rotated with 50 μl of neutr-avidin agarose beads at 4° C. for 24 hours. Beads were washed with corresponding buffers, boiled in Laemmli buffer and analyzed by western blot using a DPEP-1 specific antibody (Proteintech).

T1 sequence (P31430 17-384): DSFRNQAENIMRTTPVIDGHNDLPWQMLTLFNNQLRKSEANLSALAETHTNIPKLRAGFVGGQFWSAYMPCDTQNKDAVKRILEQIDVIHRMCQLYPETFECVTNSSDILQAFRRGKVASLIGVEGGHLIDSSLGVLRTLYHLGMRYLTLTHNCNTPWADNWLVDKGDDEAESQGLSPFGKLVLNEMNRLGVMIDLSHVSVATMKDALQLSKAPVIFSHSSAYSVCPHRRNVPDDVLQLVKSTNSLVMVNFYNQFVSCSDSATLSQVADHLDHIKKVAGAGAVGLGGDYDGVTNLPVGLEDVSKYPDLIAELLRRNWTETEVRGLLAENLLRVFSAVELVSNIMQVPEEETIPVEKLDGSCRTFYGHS

binding to Cos-7 cells on DPEP-1 expression, flow cytometry [1]: Enhanced the Binding
binding to Cos-7 cells on DPEP-1 expression, immunofluorescence microscopy [1]: Enhanced the Binding
interaction with DPEP1 by biotin transfer (DPEP1 [5]): able to interact with DPEP1
Substance: H-LSALTPSPSWLKYKAL [LSALT]
neutrophil adhesion in the hepatic sinusoids [2]: inhibits neutrophil adhesion in the hepatic sinusoids
binding of murine melanoma cells (B16-F10) to activated HLMVEC [3]: decreased binding
binding of murine sarcoma cells (Tao-1) to activated HLMVEC [3]: decreased binding
binding of fluorescently labelled peptide to human DPEP-1 transfected Cos-1 cells (DPEP1 [4]): Binds; also recorded: Fluorescent peptide binding is only seen with DPEP1 transfection
